In the experiment the test system is C3H mice. The experiment can be described thus: Hair-growth test on shaved back of C3H mice. The following applies: 0.2 mL per mouse twice a day for two weeks, measured on sixteenth day. The format is in vivo. As to the method:
The hair-growth promoting effect of the hair tonic of the invention was evaluated according to the following hair-growth test. Commercially available acteoside (manufactured by ChromaDex Corp.) or the crude acteoside according to example 1 was dissolved in a 55% wt aqueous ethanol solution. Comparative example 1 was carried out using this aqueous ethanol solution as the reference.
C3H mice (males of 8-week age, average weight 35 g, a group of 10 mice) were used as test animals. Their back (2 cm×4 cm) was shaved to prepare a test area and from the following day onwards, each test sample (0.2 mL per mouse) was applied twice a day(morning and evening) for two weeks. On the sixteenth day, a picture of the test area was taken with a video camera, and hair-growth was measured with an image analyzer. The hair-growth promoting effect was evaluated as hair-growth rate (%) calculated according to the equation reported below.
[Hair-growth rate (%)]=[area of the hair-growth portion]/[test area]×100

For the substance Acteoside [Example 2], the Hair growth rate by setting is: (sample concentration 0.1 % by weight in 55% wt aqueous ethanol) 61.05%; (sample concentration 0.2 % by weight in 55% wt aqueous ethanol) 65.02%.

The record behind these values is patent US20090324760A1, “Hair tonic” (priority 2005, published 2009).
